The test has as its target human GPR120 (Homo sapiens (Human), UniProt Q5NUL3). Put plainly: GPR120 pERK AlphaScreen SureFire Assay (human GPR120 pERK assay). Type of test: cell-based. The conditions noted are these: CHOA12 or CHO-K1 cells stably transfected with the short form of human GPR120 receptor; phosphorylated ERK; read-out: EC50 values measured in the human GPR120 pERK assay. From the text:
GPR120 activity was monitored by measuring phosphorylation of ERK (pERK), since G protein receptors are known to activate the ERK signaling cascade either directly and/or through recruitment of arrestin that serves as a scaffold for downstream signaling events.
GPR120 pERK AlphaScreen SureFire Assay
The human and mouse GPR120-mediated intracellular phosphorylated ERK assays were established using CHOA12 cells stably transfected with the short form of human or mouse GPR120 receptor. Cells were cultured in growth medium consisting of F-12 media (Invitrogen Cat. #11765) with 5% Charcoal/Dextran FBS (Invitrogen Cat. #12676-029), 500 μg/mL GENETICIN® (Life Technologies Cat. #10131-027) and 250 μg/mL Zeocin (Invitrogen Cat. #R250-01). Cells were cryo preserved at a concentration of 2×10^7 cells/mL, in 90% Charcoal/Dextran FBS and 10% DMSO, and frozen in liquid nitrogen at a low passage number.
For the pERK assay, 2×10^7 cells/mL cryopreserved human and mouse cells were thawed rapidly in a 37° C. water bath and added to a T-225 flask containing 50 mL growth medium. The flasks were placed in a tissue culture incubator overnight (37° C., 5% CO2). The next day, cells were harvested with trypsin (Gibco Cat. #25300-054), resuspended in serum-containing growth medium and counted using a Cellometer and volume adjusted to a concentration of 0.6×10^6 cells/mL. Cells were plated into 384-well clear bottom tissue culture plates (BD Cat. #353962) at 50 μL/well, for a density of 30,000 cells/well using a MULTIDROP® and incubated for 16-18 hours (overnight) at 37° C. with 5% CO2. The next day, cells were serum starved in 30 μL of F-12 media without any serum or antibiotics for 2 hours at 37° C.
Test compounds were 3-fold, 11-point serially diluted in DMSO in a REMP assay plate (Matrix Cat. #4307) by Tecan and 5 μL was transferred into an ECHO source plate (LabCyte Cat. #LC-0200). Cells were then stimulated with 50 nL of compound dilutions using ECHO liquid handler for 7 minutes at 37° C. Compounds ranged from final assay concentrations of 33.33 μM to 0.56 nM.
The media was then dumped and cells lysed with 20 μL of 1× Lysis buffer from the AlphaScreen SureFire Phospho-ERK 1/2 Kit (Perkin Elmer Cat. #6760617M). The lysis buffer was diluted 5-fold with water before use. The plate was agitated on a shaker for 10 minutes after which 2 μL was transferred into a 384-well white proxiplate (Perkin Elmer Cat. #6008289). The SureFire assay reagent mix was prepared by mixing 60 parts Reaction Buffer, 10 parts Activation Buffer, 1 part Donor Beads, 1 part Acceptor Beads (Perkin Elmer Cat. #TGRES10K). 3.5 μL/well of this reagent mix was manually added to the proxiplate with a multichannel pipettor. Plates were spun down at 1000 rpm for 2 minutes, followed by light-protected incubation at room temperature for 2 hours. The plates were read on the Alpha-technology compatible Envision multilabel plate reader using AlphaScreen protocol according to manufacturer's specifications. The agonist effect of compounds was expressed as 100×(average sample-average blank)/(average total−average blank) where sample is the luminescence activity in the presence of test compound, blank is equal to the luminescence activity in the presence of DMSO control and the total is signal induced by 50 μM linolenic acid as reference compound. Activation data for the test compound over a range of concentrations was plotted as percentage activation of the test compound (100%=maximum response). After correcting for background, EC50 values were determined. The EC50 is defined as the concentration of test compound which produces 50% of the maximal response and was quantified using the 4 parameter logistic equation to fit the data.
The human and mouse GPR120-mediated intracellular phosphorylated ERK assays were also established using CHO-K1 cells stably transfected with the short form of human or mouse GPR120 receptor. […]
A general note: Alpha assays give light when donor and acceptor beads are brought close together.
Chain of human GPR120 (Q5NUL3 whole entry): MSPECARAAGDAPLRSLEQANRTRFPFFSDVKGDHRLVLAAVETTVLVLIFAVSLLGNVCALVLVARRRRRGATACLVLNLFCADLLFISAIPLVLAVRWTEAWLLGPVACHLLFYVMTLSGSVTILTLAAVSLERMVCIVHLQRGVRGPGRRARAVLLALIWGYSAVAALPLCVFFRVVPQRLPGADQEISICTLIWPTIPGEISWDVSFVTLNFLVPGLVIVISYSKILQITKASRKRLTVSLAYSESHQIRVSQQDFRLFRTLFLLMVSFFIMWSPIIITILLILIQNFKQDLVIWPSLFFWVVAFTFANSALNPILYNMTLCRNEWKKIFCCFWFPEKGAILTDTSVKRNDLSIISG
In the case of “3-(4-(1-(3-fluoro-5-(4- fluorophenoxy)phenyl)ethoxy) bicyclo[2.2.1]heptan-1-yloxy) propanoic acid [Example 82]”, the EC50 (usually the concentration at which the effect is half-maximal) is 980 nM.

For “3-(4-(2-phenoxybenzyloxy) bicyclo[2.2.1]heptan-1-yloxy) propanoic acid [Example 80]”, the EC50 came to 2750 nM.

As for “3-(4-(3-fluoro-5-(4- fluorophenoxy)benzyloxy) bicyclo[2.2.1]heptan-1-yloxy) propanoic acid [Example 81]”, the EC50 amounted to 350 nM.

As to “4-(4-(2-(trifluoro- methoxy) benzoyloxy) bicyclo[2.2.1] heptan-1-yl) butanoic acid [Example 20]”, the EC50 came to 710 nM.

In the case of “4-(4-(3-chloro-5- phenoxybenzyl- oxy)bicyclo [2.2.1]heptan- 1-yl)benzoic acid [Example 6]”, the EC50 turned out to be 450 nM.

Consider `O=C(O)C1CC1CC12CCC(OCc3cc(F)cc(Oc4ccccc4)c3)(CC1)C2` (racemic) [Example 91, 2-((4-((3-Fluoro-5-phenoxybenzyl)oxy)bicyclo[2.2.1]heptan-1-yl)methyl)cyclopropanecarboxylic acid], for which the EC50 was 280 nM.

With `O=C(O)[C@@H]1C[C@H]1CC12CCC(OCc3cc(F)cc(Oc4ccccc4)c3)(CC1)C2` (single isomer, unassigned) [Example 93], the EC50 worked out at 880 nM.

Take `OCC(O)CCC12CCC(OCc3cc(F)cc(Oc4ccccc4)c3)(CC1)C2` (single isomer, unassigned) [Example 96, 4-(4-((3-Fluoro-5-phenoxybenzyl)oxy)bicyclo[2.2.1]heptan-1-yl)butane-1,2-diol]: the EC50 came to 380 nM.

As to `OCC(O)CCC12CCC(OCc3cc(F)cc(Oc4ccccc4)c3)(CC1)C2` (single isomer, unassigned) [Example 97, 4-(4-((3-Fluoro-5-phenoxybenzyl)oxy)bicyclo[2.2.1]heptan-1-yl)butane-1,2-diol], the EC50 was determined as 2480 nM.

For the compound `Cc1cc(COC23CCC(CCCC(=O)O)(CC2)C3)n(-c2ccc(Cl)cc2)n1` [Example 1, 4-(4-((1-(4-Chlorophenyl)-3-methyl-1H-pyrazol-5-yl)methoxy)bicyclo[2.2.1]heptan-1-yl) butanoic acid], the EC50 was determined as 1560 nM.

Turning to `COc1ccc(F)c(COC23CCC(CCCC(=O)O)(CC2)C3)c1` [Example 2, 4-(4-(2-fluoro-5-methoxybenzyl-oxy)bicyclo [2.2.1]heptan-1-yl)butanoic acid], the EC50 was 1820 nM.

For `CC1(C)Cc2cc(Cl)cc(COC34CCC(CCCC(=O)O)(CC3)C4)c2O1` [Example 3, 4-(4-((5-chloro-2,2-dimethyl-2,3-dihydro-benzofuran-7-yl)methoxy)bicyclo[2.2.1]heptan-1-yl) butanoic acid], the half-maximal effective concentration (EC50) came out at 530 nM.

As for `O=C(O)CCCC12CCC(OCc3cc(Cl)cc(Cl)c3)(CC1)C2` [Example 4, 4-(4-(3,5-dichloro-benzyloxy)bicyclo[2.2.1]heptan-1-yl) butanoic acid], the EC50 came out at 650 nM.

On to `CC(C)Oc1ccc(Cl)cc1COC12CCC(CCCC(=O)O)(CC1)C2` [Example 5, 4-(4-(5-chloro-2-isopropoxy-benzyloxy)bicyclo[2.2.1]heptan-1-yl) butanoic acid], for which the EC50 was found to be 1020 nM.

As for `Cc1cc(COC23CCC(CCCC(=O)O)(CC2)C3)cc(OC(F)(F)F)c1` [Example 7, 4-(4-(3-methyl-5-(trifluorometh-oxy)benzyloxy)bicyclo[2.2.1]heptan-1-yl) butanoic acid], the EC50 stood at 230 nM.

On to `CC(OC12CCC(CCCC(=O)O)(CC1)C2)c1cccc(C(F)(F)F)c1` (centres unmarked) [Example 8, 4-(4-(1-(3-(trifluoromethyl)phenyl)ethoxy)bicyclo[2.2.1]heptan-1-yl) butanoic acid], for which the EC50 was 2340 nM.

For the compound `O=C(O)CCCC12CCC(OC3CCc4c(Cl)cc(Cl)cc43)(CC1)C2` (centres unmarked) [Example 9, 4-(4-(4,6-dichloro-2,3-dihydro-1H-inden-1-yloxy)bicyclo[2.2.1]heptan-1-yl) butanoic acid], the EC50 turned out to be 600 nM.

With `O=C(O)CCCC12CCC(OCc3ccccc3Cl)(CC1)C2` [Example 10, 4-(4-(2-chloro-benzyloxy)bicyclo[2.2.1]heptan-1-yl) butanoic acid], the EC50 was 2640 nM.

In the case of `O=C(O)CCCC12CCC(OCc3ccc(Cl)c(Cl)c3)(CC1)C2` [Example 11, 4-(4-(3,4-dichlorobenzyl-oxy)bicyclo[2.2.1]heptan-1-yl) butanoic acid], the EC50 turned out to be 1090 nM.

As for `Cc1ccc(COC23CCC(CCCC(=O)O)(CC2)C3)cc1F` [Example 12, 4-(4-(3-fluoro-4-methylbenzyl-oxy)bicyclo [2.2.1]heptan-1-yl)butanoic acid], the EC50 amounted to 6720 nM.

Turning to `Cc1cc(COC23CCC(CCCC(=O)O)(CC2)C3)ccc1F` [Example 13, 4-(4-(4-fluoro-3-methylbenzyl-oxy)bicyclo [2.2.1]heptan-1-yl)butanoic acid], the EC50 worked out at 7670 nM.

For `O=C(O)CCCC12CCC(OCc3ccccc3Oc3ccccc3)(CC1)C2` [Example 14, 4-(4-(2-phenoxy-benzyloxy)bicyclo[2.2.1]heptan-1-yl) butanoic acid], the concentration giving a half-maximal response (EC50) amounted to 270 nM.

`O=C(O)CCCC12CCC(OCc3cccc(Oc4ccccc4)c3)(CC1)C2` [Example 15, 4-(4-(3-phenoxy-benzyloxy)bicyclo[2.2.1]heptan-1-yl) butanoic acid]: the EC50 turned out to be 360 nM.

With `O=C(O)CCCC12CCC(OCc3cccc(Oc4ccccc4F)c3)(CC1)C2` [Example 16, 4-(4-(3-(2-fluorophenoxy)benzyloxy)bicyclo[2.2.1]heptan-1-yl) butanoic acid], the EC50 was 640 nM.

Consider `O=C(O)CCCC12CCC(OCc3cccc(Oc4ccc(F)cc4)c3)(CC1)C2` [Example 17, 4-(4-(3-(4-fluorophenoxy)benzyloxy)bicyclo[2.2.1]-1-yl)butanoic acid], for which the concentration for a half-maximal effect (EC50) was determined as 250 nM.

As to `O=C(O)CCCC12CCC(OCc3cc(Cl)cc(OC(F)(F)F)c3)(CC1)C2` [Example 18, 4-(4-(3-chloro-5-(trifluorometh-oxy)benzyloxy)bicyclo[2.2.1]heptan-1-yl) butanoic acid], the EC50 worked out at 250 nM.

Take `O=C(O)CCCC12CCC(OCc3cc(Cl)ccc3OC(F)(F)F)(CC1)C2` [Example 19, 4-(4-(5-chloro-2-(trifluorometh-oxy)benzyloxy)bicyclo[2.2.1]heptan-1-yl) butanoic acid]: the EC50 was found to be 520 nM.

Consider `COc1cc(COC23CCC(CCCC(=O)O)(CC2)C3)cc(OC)c1` [Example 21, 4-(4-(3,5-dimethoxybenzyl-oxy)bicyclo [2.2.1]heptan-1-yl)butanoic acid], for which the EC50 is 1920 nM.

Take `O=C(O)CCCC12CCC(OCc3cc(F)cc(Cl)c3)(CC1)C2` [Example 22, 4-(4-(3-chloro-5-fluorobenzyl-oxy)bicyclo [2.2.1]heptan-1-yl)butanoic acid]: the EC50 was 730 nM.

Regarding `O=C(O)CCCC12CCC(OCc3cccc(Cl)c3)(CC1)C2` [Example 23, 4-(4-(3-chloro-benzyloxy)bicyclo[2.2.1]heptan-1-yl) butanoic aicd], the EC50 is 1150 nM.

For `O=C(O)CCCC12CCC(OCc3ccc(Cl)cc3)(CC1)C2` [Example 24, 4-(4-(4-chloro-benzyloxy)bicyclo[2.2.1]heptan-1-yl) butanoic acid], the concentration for a half-maximal effect (EC50) came to 2800 nM.

With `O=C(O)CCCC12CCC(OCc3cc(F)cc(C(F)(F)F)c3)(CC1)C2` [Example 25, 4-(4-(3-fluoro-5-(trifluoromethyl)benzyloxy)bicyclo[2.2.1]heptan-1-yl) butanoic acid], the half-maximal effective concentration (EC50) was 640 nM.

The values above are taken from patent publication US9518000B2, “Bicyclo [2.2.1] acid GPR120 modulators” (BRISTOL-MYERS SQUIBB COMPANY, priority 2013, dated 2016).
